# Measurements from publication PMC9783573, “Introduction of a SiFA Moiety into the D-Glutamate Chain of DOTA-PP-F11N Results in Radiohybrid-Based CCK-2R-Targeted Compounds with Improved Pharmacokinetics In Vivo” (Pharmaceuticals, 2022).
# Like-named read-outs stand apart in the source and are kept apart here.
# Experiment: in vivo
# Set-up: species or system mice
# Conditions: mouse, 24 h p.i.
# Description: For biodistribution studies, the ^177Lu-labelled compound (approx. 2–3 MBq, 100 pmol) was injected into a lateral tail vein (n = 4) of anesthetised (2% isoflurane) AR42J tumour-bearing CB-17-SCID mice. At 24 h post-injection (p.i.), the mice were euthanised. Thereafter, the pertinent organs were removed, weighed and measured using a γ-counter.
# For all competition studies, 2.90 mg/kg (40 nmol) of [^natLu]Lu-DOTA-MGS5 (10^−3 M in phosphate-buffered saline) were co-administered.
# Figure S4. (a) Biodistribution of [177Lu]Lu-DOTA-rhCCK-16 (100 pmol) co-injected with [natLu]Lu-DOTA-MGS5
# (40 nmol) in selected organs (%ID/g) at 24 h p.i. in AR42J tumour-bearing CB17-SCID mice. Data is expressed as
# mean ± SD (n = 2). (b) Representative µSPECT/CT images of [177Lu]Lu-DOTA-rhCCK-16 co-injected with [natLu]Lu-
# DOTA-MGS5 (40 nmol) at 24 h p.i. in AR42J tumour-bearing CB17- SCID mice.
# (1 picture or pasted object on this page, not shown here)
compound,measurement,setting,value
"CCCC[C@H](NC(=O)[C@H](Cc1c[nH]c2ccccc12)NC(=O)CNC(=O)[C@H](Cc1ccc(O)cc1)NC(=O)[C@H](C)NC(=O)CC[C@@H](NC(=O)CC[C@@H](NC(=O)CC[C@@H](NC(=O)CC[C@@H](NC(=O)CC[C@@H](NC(=O)CC[C@@H](NC(=O)[C@@H](CNC(=O)c1ccc([Si](F)(C(C)(C)C)C(C)(C)C)cc1)NC(=O)CC[C@H](C(=O)O)N1CCN(CC(=O)O)CCN(CC(=O)O)CCN(CC(=O)O)CC1)C(=O)O)C(=O)O)C(=O)O)C(=O)O)C(=O)O)C(=O)O)C(=O)N[C@@H](CC(=O)O)C(=O)N[C@@H](Cc1ccccc1)C(N)=O [[nat/177Lu]Lu-(R)-DOTAGA-rhCCK-16, metal not drawn]",tissue uptake at 24 h,"CB17-SCID, iv, total radioactivity, competition, read-out: Activity levels in the stomach, co-injection of excess [natLu]Lu-DOTA-MGS5",< 0.3 %ID/g
same,tissue uptake at 24 h,"CB17-SCID, iv, total radioactivity, competition, read-out: activity levels in the tumour, co-injection of excess [natLu]Lu-DOTA-MGS5",< 1 %ID/g
same,tissue uptake at 24 h,"100 pmol + 40 nmol [natLu]Lu-DOTA-MGS5, n = 2, read-out: Biodistribution competition studies, Adrenal",0.4 ± 0.11 %ID/g
same,tissue uptake at 24 h,"100 pmol + 40 nmol [natLu]Lu-DOTA-MGS5, n = 2, read-out: Biodistribution competition studies, Blood",0.05 %ID/g
same,tissue uptake at 24 h,"100 pmol + 40 nmol [natLu]Lu-DOTA-MGS5, n = 2, read-out: Biodistribution competition studies, Bone",0.24 ± 0.04 %ID/g
same,tissue uptake at 24 h,"100 pmol + 40 nmol [natLu]Lu-DOTA-MGS5, n = 2, read-out: Biodistribution competition studies, Heart",0.13 ± 0.01 %ID/g
same,tissue uptake at 24 h,"100 pmol + 40 nmol [natLu]Lu-DOTA-MGS5, n = 2, read-out: Biodistribution competition studies, Intestine",0.16 ± 0.03 %ID/g
same,tissue uptake at 24 h,"100 pmol + 40 nmol [natLu]Lu-DOTA-MGS5, n = 2, read-out: Biodistribution competition studies, Kidney",105 ± 21 %ID/g
same,tissue uptake at 24 h,"100 pmol + 40 nmol [natLu]Lu-DOTA-MGS5, n = 2, read-out: Biodistribution competition studies, Liver",2.31 ± 0.66 %ID/g
same,tissue uptake at 24 h,"100 pmol + 40 nmol [natLu]Lu-DOTA-MGS5, n = 2, read-out: Biodistribution competition studies, Lung",2.59 ± 1.27 %ID/g
same,tissue uptake at 24 h,"100 pmol + 40 nmol [natLu]Lu-DOTA-MGS5, n = 2, read-out: Biodistribution competition studies, Muscle",0.06 ± 0.04 %ID/g
same,tissue uptake at 24 h,"100 pmol + 40 nmol [natLu]Lu-DOTA-MGS5, n = 2, read-out: Biodistribution competition studies, Pancreas",0.2 ± 0.01 %ID/g
same,tissue uptake at 24 h,"100 pmol + 40 nmol [natLu]Lu-DOTA-MGS5, n = 2, read-out: Biodistribution competition studies, Spleen",1.73 ± 0.01 %ID/g
same,tissue uptake at 24 h,"100 pmol + 40 nmol [natLu]Lu-DOTA-MGS5, n = 2, read-out: Biodistribution competition studies, Stomach",0.15 ± 0.04 %ID/g
same,tissue uptake at 24 h,"100 pmol + 40 nmol [natLu]Lu-DOTA-MGS5, n = 2, read-out: Biodistribution competition studies, Tumour",0.91 ± 0.04 %ID/g
